Results taken from the supplement of paper PMC11208160.

test: recombinant barcode read abundance after kanamycin selection (control-corrected) (log10(CPM+1)); higher = more efficient recombination; sequences stand for … in AGTGCAGAGAAAATCGGCCAGTTTTCTCTGCCTGCAGTCCGCATGCCGT…AGATTTATGCAGCGGACTGCCTTTCTCCCAAAGTGATAAACCGGACAGTATCATGGACCGGTTTTCCCGGTAATCCGTATTTGCAAGGTTGGTTTCACT; site = the 11-nt target
Method in brief: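 For this pooled screen, each oligo contained a promoter, a target, a barcode and the J23119-driven first 104 bases of the bridge RNA. Gibson cloning placed it into a vector supplying the remaining 73 bp and a T7-inducible recombinase, and the pool was co-electroporated into E. coli with a donor plasmid. Recombination efficiency is derived from barcode counts per million at recombinant junctions after averaging and control correction, and is expressed on a log scale as log10(CPM+1), with selection on chloramphenicol/ampicillin/kanamycin plus 0.1 mM IPTG against a chloramphenicol/ampicillin LB agar control.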
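Note: IS621 recombinase and bridge RNA in Escherichia coli cells.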

Row | Sequence | recombinant barcode read abundance (log10)
1 | GAAAACTCTTGGGTTCTAACCTGTTGCCT (site GAAAACTCTAG) | 1.11
2 | GAAAAGTCTTGGGTTCTAACCTGTTGCTG (site CTCGCTCCTTG) | 0.185
3 | GAAAAGTCTTGGGTTCTAACCTGTTGCTG (site GAAAAGTCTCA) | 1.28
4 | GAAAATCCTTGGGTTCTAACCTGTTGCCT (site GAAAATCCTAG) | 0.304
5 | GAAAATCCTTGGGTTCTAACCTGTTGCCT (site GAAACTCCTAG) | 0.0115
6 | GAAAATCCTTGGGTTCTAACCTGTTGCCT (site GAAAGTCCTAG) | 0.0177
7 | GAAAATCCTTGGGTTCTAACCTGTTGCCT (site GAAATTCCTAG) | 0.297
8 | GAAACGGCTTGGGTTCTAACCTGTTGCCT (site GAAAAGGCTAG) | 0.0884
9 | GAAACGGCTTGGGTTCTAACCTGTTGCCT (site GAAACGGCTAG) | 0.091
10 | GAAACGGCTTGGGTTCTAACCTGTTGCCT (site GAAAGGGCTAG) | 0.0962
11 | GAAACGGCTTGGGTTCTAACCTGTTGCCT (site GAAATGGCTAG) | 0.323
12 | GAAAGTTCTTGGGTTCTAACCTGTTGCCT (site GAAAGTTCTAG) | 1.15
13 | GAAAGTTCTTGGGTTCTAACCTGTTGCCT (site GCAAGTTCTAG) | 0.0711
14 | GAAAGTTCTTGGGTTCTAACCTGTTGCCT (site GGAAGTTCTAG) | 0.109
15 | GAAAGTTCTTGGGTTCTAACCTGTTGCCT (site GTAAGTTCTAG) | 0.153
16 | GAAATGGCTTGGGTTCTAACCTGTTGCCT (site GAAAAGGCTAG) | 0.0553
17 | GAAATGGCTTGGGTTCTAACCTGTTGCCT (site GAAACGGCTAG) | 0.237
18 | GAAATGGCTTGGGTTCTAACCTGTTGCCT (site GAAAGGGCTAG) | 0.108
19 | GAAATGGCTTGGGTTCTAACCTGTTGCCT (site GAAATGGCTAG) | 0.309
20 | GAACACACTTGGGTTCTAACCTGTTGCCG (site GAACACACTCG) | 1.56
21 | GAACACACTTGGGTTCTAACCTGTTGCCG (site GCACACACTCA) | 0.794
22 | GAACACTCTTGGGTTCTAACCTGTTGCTG (site GAACACTCTCA) | 2.09

Row | Sequence | recombinant barcode read abundance (log10)
23 | GAACACTCTTGGGTTCTAACCTGTTGCTG (site TAACACTCTAA) | 0.113
24 | GAACCTACTTGGGTTCTAACCTGTTGCCA (site GAACCTACTTG) | 1.16
25 | GAACCTACTTGGGTTCTAACCTGTTGCCA (site GGACCTACTTG) | 0.0691
26 | GAACTGCCTTGGGTTCTAACCTGTTGCTT (site CCTGACTCTGT) | 0.00853
27 | GAACTGCCTTGGGTTCTAACCTGTTGCTT (site GAACTGCCTAA) | 1.35
28 | GAAGAGTCTTGGGTTCTAACCTGTTGCCT (site GAAGAGTCTAG) | 2.11
29 | GAAGAGTCTTGGGTTCTAACCTGTTGCCT (site GCAGAGTCTAG) | 0.0703
30 | GAAGAGTCTTGGGTTCTAACCTGTTGCCT (site GGAGAGTCTAG) | 0.233
31 | GAAGAGTCTTGGGTTCTAACCTGTTGCCT (site GTAGAGTCTAG) | 1.29
32 | GAAGCGCCTTGGGTTCTAACCTGTTGCCT (site GAAGAGCCTAG) | 0.0683
33 | GAAGCGCCTTGGGTTCTAACCTGTTGCCT (site GAAGCGCCTAG) | 1.42
34 | GAAGCGCCTTGGGTTCTAACCTGTTGCCT (site GAAGGGCCTAG) | 0.0832
35 | GAAGCGCCTTGGGTTCTAACCTGTTGCCT (site GAAGTGCCTAG) | 0.397
36 | GAAGCTACTTGGGTTCTAACCTGTTGCGT (site GAAGCTACTAC) | 1.84
37 | GAAGCTACTTGGGTTCTAACCTGTTGCGT (site GATGCTACTCC) | 0.0227
38 | GAATCAACTTGGGTTCTAACCTGTTGCTT (site GAATCAACTAA) | 0.0878
39 | GAATCAACTTGGGTTCTAACCTGTTGCTT (site GACTCGACTAA) | 0.119
40 | GAATGTTCTTGGGTTCTAACCTGTTGCTT (site GAATATTCTAA) | 0.0132
41 | GAATGTTCTTGGGTTCTAACCTGTTGCTT (site GAATGTTCTAA) | 0.402
42 | GAATTAGCTTGGGTTCTAACCTGTTGCGG (site GAATTAGCTCC) | 1.71
43 | GAATTAGCTTGGGTTCTAACCTGTTGCGG (site GTATTAGCTCG) | 0.287
44 | GACAGACCTTGGGTTCTAACCTGTTGCCT (site AACAGACCTAG) | 0.83

Row | Sequence | recombinant barcode read abundance (log10)
45 | GACAGACCTTGGGTTCTAACCTGTTGCCT (site CACAGACCTAG) | 0.193
46 | GACAGACCTTGGGTTCTAACCTGTTGCCT (site GACAGACCTAG) | 1.72
47 | GACAGACCTTGGGTTCTAACCTGTTGCCT (site TACAGACCTAG) | 0.425
48 | GACAGCCCTTGGGTTCTAACCTGTTGCTG (site GACAGCCCTCA) | 0.991
49 | GACAGCCCTTGGGTTCTAACCTGTTGCTG (site GTCAGCCCTCA) | 0.0582
50 | GACAGTACTTGGGTTCTAACCTGTTGCCT (site AACAGTACTAG) | 0.165
51 | GACAGTACTTGGGTTCTAACCTGTTGCCT (site CACAGTACTAG) | 0.306
52 | GACAGTACTTGGGTTCTAACCTGTTGCCT (site GACAGTACTAG) | 0.714
53 | GACAGTACTTGGGTTCTAACCTGTTGCCT (site TACAGTACTAG) | 0.79
54 | GACATATCTTGGGTTCTAACCTGTTGCCA (site GACATATCTCA) | 0.337
55 | GACATATCTTGGGTTCTAACCTGTTGCCA (site GACATATCTTG) | 0.204
56 | GACATATCTTGGGTTCTAACCTGTTGCTT (site ACTGGTCCTCC) | 0.0369
57 | GACATATCTTGGGTTCTAACCTGTTGCTT (site GACATATCTAA) | 0.358
58 | GACATTCCTTGGGTTCTAACCTGTTGCTT (site CTATGAACTTG) | 0.0749
59 | GACATTCCTTGGGTTCTAACCTGTTGCTT (site GACATTCCTAA) | 0.21
60 | GACCTACCTTGGGTTCTAACCTGTTGCCT (site GACATACCTAG) | 0.0646
61 | GACCTACCTTGGGTTCTAACCTGTTGCCT (site GACCTACCTAG) | 1.8
62 | GACCTACCTTGGGTTCTAACCTGTTGCCT (site GACGTACCTAG) | 0.27
63 | GACCTACCTTGGGTTCTAACCTGTTGCCT (site GACTTACCTAG) | 0.359
64 | GACCTGACTTGGGTTCTAACCTGTTGCCA (site GACCTGACTTG) | 0.463
65 | GACCTGACTTGGGTTCTAACCTGTTGCCA (site GACCTGGCTCG) | 0.128
66 | GACGAGTCTTGGGTTCTAACCTGTTGCTA (site GACGAGTCTTA) | 1.01

Row | Sequence | recombinant barcode read abundance (log10)
67 | GACGAGTCTTGGGTTCTAACCTGTTGCTA (site GGCGAGTCTTA) | 0.154
68 | GACGGACCTTGGGTTCTAACCTGTTGCAT (site GACGGACCTAT) | 2.13
69 | GACGGACCTTGGGTTCTAACCTGTTGCAT (site TGAAAGACTCG) | 0.114
70 | GACGGACCTTGGGTTCTAACCTGTTGCTT (site GACGGACCTAA) | 0.832
71 | GACGGACCTTGGGTTCTAACCTGTTGCTT (site GATGGCCCTAA) | 0.191
72 | GACGGAGCTTGGGTTCTAACCTGTTGCTG (site GACGGAGCTCA) | 1.89
73 | GACGGAGCTTGGGTTCTAACCTGTTGCTG (site GACGGGGCTCT) | 0.224
74 | GACGGATCTTGGGTTCTAACCTGTTGCTT (site GACGGATCTAA) | 0.557
75 | GACGGATCTTGGGTTCTAACCTGTTGCTT (site GACGGATCTAC) | 0.162
76 | GACGGATCTTGGGTTCTAACCTGTTGCTT (site GACGGATCTAG) | 0.197
77 | GACGGATCTTGGGTTCTAACCTGTTGCTT (site GACGGATCTAT) | 0.15
78 | GACTCTCCTTGGGTTCTAACCTGTTGCCT (site GACTCTCCTAA) | 0.21
79 | GACTCTCCTTGGGTTCTAACCTGTTGCCT (site GACTCTCCTAC) | 0.0378
80 | GACTCTCCTTGGGTTCTAACCTGTTGCCT (site GACTCTCCTAG) | 0.0776
81 | GACTCTCCTTGGGTTCTAACCTGTTGCCT (site GACTCTCCTAT) | 0.191
82 | GACTGGCCTTGGGTTCTAACCTGTTGCAG (site ATGGACACTAC) | 0.0143
83 | GACTGGCCTTGGGTTCTAACCTGTTGCAG (site GACTGGCCTCT) | 0.862
84 | GACTTAACTTGGGTTCTAACCTGTTGCTT (site CCTAAGTCTTG) | 0.0154
85 | GACTTAACTTGGGTTCTAACCTGTTGCTT (site GACTTAACTAA) | 0.48
86 | GAGAATACTTGGGTTCTAACCTGTTGCGT (site AAGAATACTAG) | 0.0615
